System: CXCR4 selector in IL2RG locus, CD34+ cells
Test: SMArT-D in CD34+ cells, IL2RG locus, CXCR4 selector
Format: cell-based, human
Conditions: lower dose (80 nM), after washout
Procedure: CD34+ cells were edited according to a previously optimized protocol (Schiroli et al., 2017). Briefly, 5×10^5 CD34+ cells/ml were stimulated in serum-free StemSpan medium (StemCell Technologies) supplemented with penicillin, streptomycin, glutamine, 1 μM SR-1 (Biovision), 50 μM UM171 (STEMCell Technologies), 10 μM PGE2 added only at the beginning of the culture (Cayman), and human early-acting cytokines (SCF 100 ng/ml, Flt3-L 100 ng/ml, TPO 20 ng/ml, and IL-6 20 ng/ml; all purchased from Peprotech). After 3 days of pre-stimulation, cells were washed with PBS and electroporated using P3 Primary Cell 4D-Nucleofector X Kit and program EO-100 (Lonza). Cells were electroporated with 2.5-1.25 μM of RNPs. Transduction with AAV6 was performed at a dose of 1×10^4 vg/cell 15′ after electroporation. […] Gene editing efficiency was measured from cultured cells in vitro 3 days after electroporation by flow cytometry measuring the percentage of cells expressing the GFP/truncated NGFR/CXCR4 marker or by digital droplet PCR analysis designing primers and probe on the junction between the vector sequence and the targeted locus and on control sequences utilized as normalizer.

SMILES: C[C@H]1c2cccc(O)c2C(=O)C2=C(O)[C@]3(O)C(=O)C(C(N)=O)=C(O)[C@@H](N(C)C)[C@@H]3[C@@H](O)[C@@H]21 [doxycycline]
- CXCR4-overexpressing cells in the most primitive compartment: up to 13%
